# Measured values: patent US10071957B2, “N-substituted benzamides and methods of use thereof” (GENENTECH, INC., priority 2012, dated 2018)
# Tests used:
# [1] = molecular target: hNaV1.5 (Homo sapiens (Human), UniProt Q14524); test: Patch voltage clamp electrophysiology, inactivated state block of NaV1.5 in HEK-293 cells; format: cell-based; settings: HEK cells with β1 subunit, read-out: hNaV 1.5 IC50
# Method: (§1) Patch voltage clamp electrophysiology allows for the direct measurement and quantification of block of voltage-gated sodium channels (NaV's), and allows the determination of the time- and voltage-dependence of block which has been interpreted as differential binding to the resting, open, and inactivated states of the sodium channel (Hille, B., Journal of General Physiology (1977), 69: 497-515).
# (§2) The following patch voltage clamp electrophysiology studies were performed on representative compounds of the invention using human embryonic kidney cells (HEK), permanently transfected with an expression vector containing the full-length cDNA coding for the desired human sodium channel α-subunit, grown in culture media containing 10% FBS, 1% PSG, and 0.5 mg/mL G418 at 37° C. with 5% CO2. […] NaV1.7 and NaV1.5 cDNAs (NM_002977 and AC137587; SCN5A, respectively) were stably expressed in HEK-293 cells. The β1 subunit was coexpressed in both the NaV1.7 and NaV1.5 cell lines.
# (§3) Sodium currents were measured using the patch clamp technique in the whole-cell configuration using either a PatchXpress automated voltage clamp or manually using an Axopatch 200B (Axon Instruments) or Model 2400 (A-M systems) amplifier. The manual voltage clamp protocol was as follows:
# (§4) Borosilicate glass micropipettes were fire-polished to a tip diameter yielding a resistance of 2-4 Mohms in the working solutions. The pipette was filled with a solution comprised of: 5 mM NaCl, 10 mM CsCl, 120 mM CsF, 0.1 mM CaCl2, 2 mM MgCl2, 10 mM HEPES, 10 mM EGTA; and adjusted to pH 7.2 with CsOH. The external solution had the following composition: 140 mM NaCl, 5 mM KCl, 2 mM CaCl2, 1 mM MgCl2, 10 mM HEPES; and adjusted to pH 7.4 with NaOH. In some studies, the external sodium was reduced by equimolar replacement with choline. Osmolarity in the CsF internal and NaCl external solutions was adjusted to 300 mOsm/kg and 310 mOsm/kg with glucose, respectively. All recordings were performed at ambient temperature in a bath chamber with a volume of 150 μL. Control sodium currents were measured in 0.5% DMSO. Controls and representative compounds of the invention were applied to the recording chamber through a 4-pinch or 8-pinch valve bath perfusion system manufactured by ALA Scientific Instruments.
# (§5) Currents were recorded at 40 kHz sampling frequency, filtered at […], and stored using a Digidata-1322A analogue/digital interface with the pClamp software (Axon Instruments). Series resistance compensation was applied (60-80%). […] All statistics in this study are given as mean±SD.
# The membrane potential was maintained at a voltage where inactivation of the channel is complete (which was −60 mV for both NaV1.7 and NaV1.5). The voltage is then stepped back to a very negative (Vhold=[…]) voltage for 20 ms and then a test pulse is applied to quantify the compound block. The 20 ms brief repolarization was long enough for compound-free channels to completely recover from fast inactivation, but the compound-bound channels recovered more slowly such that negligible recovery could occur during this interval. The percent decrease in sodium current following wash-on of compound was taken as the percent block of sodium channels.
# [2] = molecular target: T1, hNaV1.7 (Homo sapiens (Human), UniProt Q15858); test: Patch voltage clamp electrophysiology, inactivated state block of NaV1.7 in HEK-293 cells; format: cell-based; settings: HEK cells with β1 subunit, read-out: hNaV 1.7 IC50
# T1 sequence (Q15858 whole entry, looked up): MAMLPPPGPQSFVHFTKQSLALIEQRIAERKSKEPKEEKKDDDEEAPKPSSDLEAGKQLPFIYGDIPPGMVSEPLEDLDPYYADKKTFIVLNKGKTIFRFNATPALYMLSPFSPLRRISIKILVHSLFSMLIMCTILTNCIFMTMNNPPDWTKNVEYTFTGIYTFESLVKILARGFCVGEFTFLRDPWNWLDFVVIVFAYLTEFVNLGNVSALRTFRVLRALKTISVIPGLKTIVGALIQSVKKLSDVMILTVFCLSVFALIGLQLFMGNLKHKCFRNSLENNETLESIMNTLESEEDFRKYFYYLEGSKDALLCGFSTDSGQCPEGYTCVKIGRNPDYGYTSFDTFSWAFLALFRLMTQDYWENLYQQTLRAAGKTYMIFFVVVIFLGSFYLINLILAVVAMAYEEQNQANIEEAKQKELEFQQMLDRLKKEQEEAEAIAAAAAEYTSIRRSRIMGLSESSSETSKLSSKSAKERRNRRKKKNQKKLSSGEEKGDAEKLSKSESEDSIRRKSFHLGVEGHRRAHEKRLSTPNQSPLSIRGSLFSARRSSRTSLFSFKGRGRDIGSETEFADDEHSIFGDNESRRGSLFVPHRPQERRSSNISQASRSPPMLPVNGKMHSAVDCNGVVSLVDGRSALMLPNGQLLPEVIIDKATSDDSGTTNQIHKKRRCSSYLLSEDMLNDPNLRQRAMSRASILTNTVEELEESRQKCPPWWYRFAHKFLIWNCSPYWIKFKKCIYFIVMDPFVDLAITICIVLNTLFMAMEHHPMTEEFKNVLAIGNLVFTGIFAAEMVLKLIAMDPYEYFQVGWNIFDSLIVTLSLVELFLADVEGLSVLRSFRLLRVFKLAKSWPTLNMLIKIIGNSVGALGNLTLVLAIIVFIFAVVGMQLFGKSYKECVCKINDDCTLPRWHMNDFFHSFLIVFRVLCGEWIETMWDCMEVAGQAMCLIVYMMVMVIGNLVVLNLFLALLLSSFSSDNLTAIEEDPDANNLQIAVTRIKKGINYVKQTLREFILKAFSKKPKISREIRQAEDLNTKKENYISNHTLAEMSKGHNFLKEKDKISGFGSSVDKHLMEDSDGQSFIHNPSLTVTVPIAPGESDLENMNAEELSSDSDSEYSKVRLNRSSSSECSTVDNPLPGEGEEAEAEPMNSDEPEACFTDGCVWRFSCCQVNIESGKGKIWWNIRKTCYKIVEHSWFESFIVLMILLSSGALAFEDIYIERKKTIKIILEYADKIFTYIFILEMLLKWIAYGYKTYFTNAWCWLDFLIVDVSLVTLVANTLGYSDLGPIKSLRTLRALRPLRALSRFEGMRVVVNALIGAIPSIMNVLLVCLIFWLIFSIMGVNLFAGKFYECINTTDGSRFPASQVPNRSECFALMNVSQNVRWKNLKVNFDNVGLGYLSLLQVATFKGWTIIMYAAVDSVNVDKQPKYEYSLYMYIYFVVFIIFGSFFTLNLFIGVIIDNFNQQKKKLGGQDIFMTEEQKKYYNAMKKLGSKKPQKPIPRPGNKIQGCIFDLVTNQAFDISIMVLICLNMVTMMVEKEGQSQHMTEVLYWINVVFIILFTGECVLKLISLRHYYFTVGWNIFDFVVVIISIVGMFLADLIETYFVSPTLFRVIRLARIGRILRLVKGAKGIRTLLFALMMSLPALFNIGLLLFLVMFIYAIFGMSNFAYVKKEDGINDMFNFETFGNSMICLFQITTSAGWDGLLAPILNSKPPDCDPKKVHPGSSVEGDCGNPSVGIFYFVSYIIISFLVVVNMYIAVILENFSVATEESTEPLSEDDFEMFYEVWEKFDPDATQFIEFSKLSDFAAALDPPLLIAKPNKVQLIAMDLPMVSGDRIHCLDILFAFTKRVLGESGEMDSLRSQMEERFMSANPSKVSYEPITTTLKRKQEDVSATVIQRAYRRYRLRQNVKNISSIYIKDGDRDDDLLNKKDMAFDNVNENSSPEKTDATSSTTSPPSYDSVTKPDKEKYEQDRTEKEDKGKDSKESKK
# T1 sequence (Q07699 whole entry partner, looked up): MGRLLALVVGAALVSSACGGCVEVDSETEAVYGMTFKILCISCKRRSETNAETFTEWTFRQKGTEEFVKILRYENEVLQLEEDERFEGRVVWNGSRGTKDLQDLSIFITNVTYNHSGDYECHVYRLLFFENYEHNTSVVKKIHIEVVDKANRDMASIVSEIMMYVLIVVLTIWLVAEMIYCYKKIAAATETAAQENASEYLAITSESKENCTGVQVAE
# Method: as §1, §2, §3
# as §4, with “The” for “Borosilicate glass micropipettes were fire-polished to a tip diameter yielding a resistance of 2-4 Mohms in the working solutions. The”
# as §5
# The membrane potential was maintained at a voltage where inactivation of the channel is complete (which was −60 mV for both NaV1.7 and NaV1.5). […] The percent decrease in sodium current following wash-on of compound was taken as the percent block of sodium channels.
# [3] = molecular target: T1, hNaV1.7; test: Competitive binding of tritiated compound to membranes from cells expressing hNav1.7 and the β1 subunit; settings: 100 pM [3H]compound, 18 h, room temperature; read-out: NaV1.7 395 Membrane Binding IC50
# In short: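 Membranes from cells expressing hNav1.7 with β1 subunit incubated 18 h at room temperature with 100 pM tritiated reference compound and test compound in 100 mM NaCl, 20 mM Tris HCl, pH 7.4. Nonspecific binding defined with 1 μM unlabelled compound; bound radioactivity counted after GF/C filtration. IC50 from 4-parameter logistic fit.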
# Chain of hNaV1.5 (Q14524 whole entry): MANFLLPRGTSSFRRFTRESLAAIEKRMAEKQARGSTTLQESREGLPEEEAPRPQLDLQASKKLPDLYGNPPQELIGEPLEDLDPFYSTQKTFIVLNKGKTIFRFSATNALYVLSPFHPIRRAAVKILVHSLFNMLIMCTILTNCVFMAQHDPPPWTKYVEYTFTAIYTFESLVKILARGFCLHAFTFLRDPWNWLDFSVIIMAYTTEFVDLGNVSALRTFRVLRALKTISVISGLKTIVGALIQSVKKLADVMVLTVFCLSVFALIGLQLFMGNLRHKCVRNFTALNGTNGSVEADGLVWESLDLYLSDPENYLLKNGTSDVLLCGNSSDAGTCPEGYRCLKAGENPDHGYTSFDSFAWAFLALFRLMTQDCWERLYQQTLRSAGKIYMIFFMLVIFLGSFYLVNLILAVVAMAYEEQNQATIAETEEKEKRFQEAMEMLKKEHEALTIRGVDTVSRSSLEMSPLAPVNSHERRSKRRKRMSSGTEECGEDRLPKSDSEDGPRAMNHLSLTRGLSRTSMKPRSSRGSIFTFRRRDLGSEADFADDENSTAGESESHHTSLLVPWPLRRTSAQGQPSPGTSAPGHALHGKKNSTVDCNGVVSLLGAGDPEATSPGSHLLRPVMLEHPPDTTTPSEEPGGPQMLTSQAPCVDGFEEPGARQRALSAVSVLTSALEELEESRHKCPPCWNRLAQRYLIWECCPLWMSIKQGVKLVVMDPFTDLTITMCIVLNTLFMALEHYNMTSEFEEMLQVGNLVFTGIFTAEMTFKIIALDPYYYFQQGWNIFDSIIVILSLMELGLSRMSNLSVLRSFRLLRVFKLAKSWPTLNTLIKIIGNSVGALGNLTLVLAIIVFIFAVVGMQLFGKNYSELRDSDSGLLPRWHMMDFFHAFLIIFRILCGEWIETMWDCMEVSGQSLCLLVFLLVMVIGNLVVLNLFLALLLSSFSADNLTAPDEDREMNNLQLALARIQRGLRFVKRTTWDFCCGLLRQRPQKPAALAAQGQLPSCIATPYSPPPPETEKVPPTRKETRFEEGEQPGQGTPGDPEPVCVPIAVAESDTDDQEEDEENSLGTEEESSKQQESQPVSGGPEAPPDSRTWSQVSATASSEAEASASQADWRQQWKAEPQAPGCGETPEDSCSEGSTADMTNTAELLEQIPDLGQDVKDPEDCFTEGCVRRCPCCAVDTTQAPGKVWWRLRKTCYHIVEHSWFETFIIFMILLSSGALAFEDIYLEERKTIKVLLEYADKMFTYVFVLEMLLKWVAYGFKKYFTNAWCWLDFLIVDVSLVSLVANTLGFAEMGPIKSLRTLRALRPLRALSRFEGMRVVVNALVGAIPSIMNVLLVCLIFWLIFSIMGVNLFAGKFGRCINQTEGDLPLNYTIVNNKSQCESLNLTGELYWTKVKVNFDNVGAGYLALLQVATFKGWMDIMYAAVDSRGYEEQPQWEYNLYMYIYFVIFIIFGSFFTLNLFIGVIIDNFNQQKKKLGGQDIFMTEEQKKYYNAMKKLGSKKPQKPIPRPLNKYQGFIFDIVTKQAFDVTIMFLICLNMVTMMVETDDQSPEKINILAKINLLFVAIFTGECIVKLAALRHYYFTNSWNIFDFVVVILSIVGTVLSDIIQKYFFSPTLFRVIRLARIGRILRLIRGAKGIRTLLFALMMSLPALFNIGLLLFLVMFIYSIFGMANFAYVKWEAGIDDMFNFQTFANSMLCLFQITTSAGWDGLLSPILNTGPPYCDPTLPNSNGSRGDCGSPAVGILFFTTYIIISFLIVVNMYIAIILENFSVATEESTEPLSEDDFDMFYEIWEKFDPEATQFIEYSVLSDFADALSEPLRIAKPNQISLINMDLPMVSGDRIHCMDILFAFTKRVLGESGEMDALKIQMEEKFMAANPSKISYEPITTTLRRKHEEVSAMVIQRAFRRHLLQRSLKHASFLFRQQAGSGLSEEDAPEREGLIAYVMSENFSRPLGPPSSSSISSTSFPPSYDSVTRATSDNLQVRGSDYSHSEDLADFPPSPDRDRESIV
SMILES,IC50 [1] [nM],IC50 [2] [nM],IC50 [3] [nM]
CC(C)Oc1ncc(Oc2cc(F)c(C(=O)NS(=O)(=O)N3CCC3)cc2C2CC2)cc1Cl [Preparation 87],1200,2.1,6
"CN(C)S(=O)(=O)NC(=O)c1cc(Cl)c(COc2ccc(Cl)c(Cl)c2)cc1F [Preparation 5, 5-chloro-4-((3,4-dichlorophenoxy)methyl)-N-(N,N-dimethylsulfamoyl)-2-fluorobenzamide]",–,19,174
C=Cc1cc(C(=O)NS(=O)(=O)N2CCC2)c(F)cc1Oc1cnc(OCC(F)(F)F)c(Cl)c1 [Preparation 92],–,4.3,11
"NS(=O)(=O)NC(=O)c1cc(Cl)c(Oc2ccc(Cl)c(C(F)(F)F)c2)cc1F [Preparation 7, 5-chloro-4-(4-chloro-3-(trifluoromethyl)phenoxy)-2-fluoro-N-sulfamoyl-benzamide]",–,190,1130
"CC(C)COc1ncc(Oc2cc(F)c(C(=O)NS(=O)(=O)N3CCc4ccccc43)cc2Cl)cc1Cl [Preparation 25, 5-chloro-4-((5-chloro-6-isobutoxypyridin-3-yl)oxy)-2-fluoro-N-(indolin-1-yl-sulfonyl)benzamide]",–,190,388
"CC(C)COc1ncc(Oc2cc(F)c(C(=O)NS(=O)(=O)c3cccnc3)cc2Cl)cc1Cl [Preparation 28, 5-chloro-4-((5-chloro-6-isobutoxypyridin-3-yl)oxy)-2-fluoro-N-(pyridin-3-yl-sulfonyl)benzamide]",–,57,703
"CN(C)S(=O)(=O)NC(=O)c1cc(Cl)c(Oc2ccc(OC(F)(F)F)c(Cl)c2)cc1F [Preparation 12, 5-chloro-4-(3-chloro-4-(trifluoromethoxy)phenoxy)-N-(N,N-dimethylsulfamoyl)-2-fluorobenzamide]",–,41,218
"CN(C)S(=O)(=O)NC(=O)c1cc(Cl)c(Oc2ccc(Cl)c(C(F)(F)F)c2)cc1F [Preparation 1, 5-chloro-4-(4-chloro-3-(trifluoromethyl)phenoxy)-N-(N,N-dimethylsulfamoyl)-2-fluorobenzamide]",–,53,253
"CC(C)COc1ncc(Oc2cc(F)c(C(=O)NS(=O)(=O)c3c[nH]cn3)cc2Cl)cc1Cl [Preparation 26, N-((1H-imidazol-4-yl)sulfonyl)-5-chloro-4-((5-chloro-6-isobutoxypyridin-3-yl)oxy)-2-fluorobenzamide]",–,9,77.3
"CN(C)S(=O)(=O)NC(=O)c1cc(Cl)c(OCc2ccc(Cl)c(Cl)c2)cc1F [Preparation 23, 5-chloro-4-((3,4-dichlorobenzyl)oxy)-N-(N,N-dimethyl-sulfamoyl)-2-fluoro-benzamide]",–,271,1250
"CC(C)COc1ncc(Oc2cc(F)c(C(=O)NS(=O)(=O)N3CCCCC3)cc2Cl)cc1Cl [Preparation 15, 5-chloro-4-((5-chloro-6-isobutoxypyridin-3-yl)oxy)-2-fluoro-N-(piperidin-1-ylsulfonyl)benzamide]",–,64,58.4
"CC(C)COc1ncc(Oc2cc(F)c(C(=O)NS(N)(=O)=O)cc2Cl)cc1Cl [Preparation 4, 5-chloro-4-((5-chloro-6-isobutoxypyridin-3-yl)oxy)-2-fluoro-N-sulfamoylbenzamide]",–,9,70.8
"CC(C)COc1ncc(Oc2cc(F)c(C(=O)NS(=O)(=O)N(C)C(C)C)cc2Cl)cc1Cl [Preparation 17, 5-chloro-4-((5-chloro-6-isobutoxypyridin-3-yl)oxy)-2-fluoro-N-(N-isopropyl-N-methylsulfamoyl) benzamide]",–,125,123
CC(C)Oc1ncc(OCc2cc(F)c(C(=O)NS(=O)(=O)N3CCC3)cc2Cl)cc1Cl [Preparation 82],–,6.1,43
"CC(C)COc1ncc(Oc2cc(F)c(C(=O)NS(=O)(=O)Nc3ccc(C#N)cc3)cc2Cl)cc1Cl [Preparation 21, 5-chloro-4-((5-chloro-6-isobutoxypyridin-3-yl)oxy)-N-(N-(4-cyanophenyl)sulfamoyl)-2-fluoro-benzamide]",–,828,2940
"CNS(=O)(=O)NC(=O)c1cc(Cl)c(Oc2ccc(OC(F)(F)F)c(Cl)c2)cc1F [Preparation 11, 5-chloro-4-(3-chloro-4-(trifluoromethoxy)phenoxy)-2-fluoro-N-(N-methyl-sulfamoyl)benzamide]",–,15,145
"CC(C)COc1ncc(Oc2cc(F)c(C(=O)NS(=O)(=O)N3CCCC3)cc2Cl)cc1Cl [Preparation 14, 5-chloro-4-((5-chloro-6-isobutoxypyridin-3-yl)oxy)-2-fluoro-N-(pyrrolidin-1-ylsulfonyl)benzamide]",–,44,30.1
CNS(=O)(=O)NC(=O)c1cc(Cl)c(COc2ccc(Cl)c(Cl)c2)cc1F [Preparation 80],–,11.6,28
"CC(C)COc1ncc(Oc2cc(F)c(C(=O)NS(=O)(=O)c3cn(C)cn3)cc2Cl)cc1Cl [Preparation 24, 5-chloro-4-((5-chloro-6-isobutoxypyridin-3-yl)oxy)-2-fluoro-N-((1-methyl-1H-imidazol-4-yl)sulfonyl)benzamide]",–,34,578
"NS(=O)(=O)NC(=O)c1cc(Cl)c(Oc2ccc(OC(F)(F)F)c(Cl)c2)cc1F [Preparation 10, 5-chloro-4-(3-chloro-4-(trifluoromethoxy)phenoxy)-2-fluoro-N-sulfamoyl-benzamide]",–,226,2000
"CNS(=O)(=O)NC(=O)c1cc(Cl)c(Oc2ccc(Cl)c(C(F)(F)F)c2)cc1F [Preparation 8, 5-chloro-4-(4-chloro-3-(trifluoromethyl)phenoxy)-2-fluoro-N-(N-methyl-sulfamoyl)benzamide]",–,22,109
"CC(C)COc1ncc(Oc2cc(F)c(C(=O)NS(=O)(=O)N3CCCCCC3)cc2Cl)cc1Cl [Preparation 16, N-(azepan-1-ylsulfonyl)-5-chloro-4-((5-chloro-6-isobutoxypyridin-3-yl)oxy)-2-fluorobenzamide]",–,73,542
CN(C)S(=O)(=O)NC(=O)c1cc(Cl)c(COc2cnc(OCC(F)(F)C(F)F)c(Cl)c2)cc1F [Preparation 76],–,34.3,220
"CN(C)S(=O)(=O)NC(=O)c1cc(Cl)c(Oc2cnc(OCC(F)(F)C(F)F)c(Cl)c2)cc1F [Preparation 30, 5-chloro-4-(5-chloro-6-(2,2,3,3-tetrafluoro-propoxy)pyridin-3-yloxy)-N-(N,N-dimethylsulfamoyl)-2-fluorobenzamide]",–,34,47.8
